pEC50, pIC50: −log10 of the molar value. Like-named read-outs stand apart in the source and are kept apart here.
What was measured:
recombinant human HPK1 = recombinant human HPK1 (Homo sapiens (Human), UniProt Q92918); experiment: HPK1 kinase assay (ADP-Glo); format: biochemical; conditions: 25 μM ATP, MBP substrate
Method in brief: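 Activity was read as ADP formed, detected by ADP-Glo luminescence after the reaction of 5 ng recombinant human HPK1 with MBP and ATP (stocks 0.5 μg/μl and 25 μM) for 40 min at 30 °C. Buffer was Tris pH 7.5 with MgCl2, BSA and DTT, with compound in 0.5% DMSO. IC50 came from inhibition curves.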

[1] = tested on: human peripheral blood pan T cells; experiment: IFNγ and IL-2 analysis of human peripheral pan T cells; format: cell-based; conditions: T-cell, CD3/CD28 bead stimulation, 100 nM Prostaglandin E2, 24 hr
Method in brief: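 Human peripheral blood pan T cells (8×10^4) were preincubated 1 h with compounds plus 100 nM PGE2. They were then activated with anti-CD3/CD28 Dynabeads at a 1:3 cell:bead ratio. IFNγ and IL-2 were measured on a Meso Scale Discovery platform.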

[2] = IFNγ secretion, read-out: IFNγ (EC50)
[3] = IL-2 secretion, read-out: IL-2 (EC50)

Chain of recombinant human HPK1 (Q92918 whole entry): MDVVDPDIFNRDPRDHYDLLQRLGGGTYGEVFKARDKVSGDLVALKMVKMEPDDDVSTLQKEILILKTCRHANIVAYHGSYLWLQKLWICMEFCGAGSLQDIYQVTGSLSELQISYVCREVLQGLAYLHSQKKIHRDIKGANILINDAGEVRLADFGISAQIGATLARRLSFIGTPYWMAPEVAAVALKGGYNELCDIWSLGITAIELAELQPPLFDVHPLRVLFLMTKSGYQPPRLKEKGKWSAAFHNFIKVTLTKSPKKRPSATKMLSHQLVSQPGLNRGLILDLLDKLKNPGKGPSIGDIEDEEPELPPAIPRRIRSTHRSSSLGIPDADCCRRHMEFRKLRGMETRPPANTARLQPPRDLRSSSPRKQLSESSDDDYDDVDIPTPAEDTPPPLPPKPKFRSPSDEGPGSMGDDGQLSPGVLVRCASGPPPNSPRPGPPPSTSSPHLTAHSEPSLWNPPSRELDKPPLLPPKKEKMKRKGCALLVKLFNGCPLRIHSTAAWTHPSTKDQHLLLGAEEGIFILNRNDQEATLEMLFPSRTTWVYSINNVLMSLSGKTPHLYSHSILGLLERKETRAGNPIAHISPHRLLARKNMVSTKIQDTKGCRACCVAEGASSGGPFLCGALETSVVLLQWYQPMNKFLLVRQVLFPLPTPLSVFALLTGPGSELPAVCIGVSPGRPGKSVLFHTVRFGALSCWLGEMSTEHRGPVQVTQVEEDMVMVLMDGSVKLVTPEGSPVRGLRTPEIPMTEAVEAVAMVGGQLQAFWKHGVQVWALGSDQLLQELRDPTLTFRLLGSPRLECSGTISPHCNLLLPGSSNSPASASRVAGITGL

Row | SMILES | pIC50 (recombinant human HPK1) | pEC50 [1, 2] | pEC50 [1, 3]
1 | CC(=O)N(C)c1c(F)c(Cl)c(-c2ccc3nc(NC(=O)[C@@H]4C[C@@H]4F)cn3c2)c2cn[nH]c12 [Example 316, (1S,2S)-N-(6-(5-chloro-6-fluoro-7-(N-methylacetamido)-1H-indazol-4-yl)imidazo[1,2-a]pyridin-2-yl)-2-fluorocyclopropane-1-carboxamide] | > 7.00 | 6.00 to 6.70 | < 6.00
2 | CC(C)Nc1c(F)c(Cl)c(-c2ccc3nc(NC(=O)[C@@H]4C[C@@H]4F)cn3c2)c2cn[nH]c12 [Example 359, (1S,2S)-N-(6-(5-chloro-6-fluoro-7-(isopropylamino)-1H-indazol-4-yl)imidazo[1,2-a]pyridin-2-yl)-2-fluorocyclopropane-1-carboxamide] | > 7.00 | 6.00 to 6.70 | 6.00 to 6.70
3 | CCc1c(F)c(N(C)CC)c2[nH]ncc2c1-c1ccn2nc(NC(=O)[C@@H]3C[C@@H]3F)cc2c1 [Example 525, (1S,2S)-N-(5-(5-ethyl-7-(ethyl(methyl)amino)-6-fluoro-1H-indazol-4-yl)pyrazolo[1,5-a]pyridin-2-yl)-2-fluorocyclopropane-1-carboxamide] | > 7.00 | > 6.70 | 6.00 to 6.70
4 | CN(C)C(=O)c1c(F)c(Cl)c(-c2ccn3nc(NC(=O)[C@@H]4C[C@@H]4F)cc3c2)c2cn[nH]c12 [Example 556, 5-chloro-6-fluoro-4-(2-((1S,2S)-2-fluorocyclopropane-1-carboxamido)pyrazolo[1,5-a]pyridin-5-yl)-N,N-dimethyl-1H-indazole-7-carboxamide] | > 7.00 | > 6.70 | 6.00 to 6.70
5 | CCc1c(F)c(F)c2[nH]ncc2c1-c1ccn2nc(NC(=O)[C@@H]3C[C@@H]3F)cc2c1 [Example 532, (1S,2S)-N-(5-(5-ethyl-6,7-difluoro-1H-indazol-4-yl)pyrazolo[1,5-a]pyridin-2-yl)-2-fluorocyclopropane-1-carboxamide] | > 7.00 | 6.00 to 6.70 | –
6 | CN(c1c(F)c(Cl)c(-c2ccc3nc(NC(=O)[C@@H]4C[C@@H]4F)cn3c2)c2cn[nH]c12)C1CC1 [Example 361, (1S,2S)-N-(6-(5-chloro-7-(cyclopropyl(methyl)amino)-6-fluoro-1H-indazol-4-yl)imidazo[1,2-a]pyridin-2-yl)-2-fluorocyclopropane-1-carboxamide] | > 7.00 | 6.00 to 6.70 | < 6.00
7 | CCc1c(F)c(SC)c2[nH]ncc2c1-c1ccc2nc(NC(=O)[C@@H]3C[C@@H]3F)sc2n1 [Example 162, (1S,2S)-N-(5-(5-ethyl-6-fluoro-7-(methylthio)-1H-indazol-4-yl)thiazolo[5,4-b]pyridin-2-yl)-2-fluorocyclopropane-1-carboxamide] | > 7.00 | 6.00 to 6.70 | –
8 | CSc1c(F)cc2[nH]ncc2c1-c1ccc2nc(NC(=O)[C@@H]3C[C@@H]3F)cn2c1 [Example 296, (1S,2S)-2-fluoro-N-(6-(6-fluoro-5-(methylthio)-1H-indazol-4-yl)imidazo[1,2-a]pyridin-2-yl)cyclopropane-1-carboxamide] | > 7.00 | > 6.70 | 6.00 to 6.70
9 | CC(=O)N(C)c1c(F)c(Cl)c(-c2ccn3nc(NC(=O)[C@@H]4C[C@@H]4F)cc3c2)c2cn[nH]c12 [Example 552, (1S,2S)-N-(5-(5-chloro-6-fluoro-7-(N-methylacetamido)-1H-indazol-4-yl)pyrazolo[1,5-a]pyridin-2-yl)-2-fluorocyclopropane-1-carboxamide] | > 7.00 | 6.00 to 6.70 | 6.00 to 6.70
10 | CCc1c(F)c(N(C)C)c2[nH]ncc2c1-c1ccc2nc(NC(=O)[C@@H]3C[C@@H]3F)sc2n1 [Example 161, (1S,2S)-N-(5-(7-(dimethylamino)-5-ethyl-6-fluoro-1H-indazol-4-yl)thiazolo[5,4-b]pyridin-2-yl)-2-fluorocyclopropane-1-carboxamide] | > 7.00 | 6.00 to 6.70 | –
11 | CCN(C)c1c(F)c(SC)c(-c2ccc3nc(NC(=O)[C@@H]4C[C@@H]4F)cn3c2)c2cn[nH]c12 [Example 324, (1S,2S)-N-(6-(7-(ethyl(methyl)amino)-6-fluoro-5-(methylthio)-1H-indazol-4-yl)imidazo[1,2-a]pyridin-2-yl)-2-fluorocyclopropane-1-carboxamide] | > 7.00 | > 6.70 | 6.00 to 6.70
12 | CSc1c(F)c(SC)c2[nH]ncc2c1-c1ccn2nc(NC(=O)[C@@H]3C[C@@H]3F)cc2c1 [Example 529, (1S,2S)-2-fluoro-N-(5-(6-fluoro-5,7-bis(methylthio)-1H-indazol-4-yl)pyrazolo[1,5-a]pyridin-2-yl)cyclopropane-1-carboxamide] | > 7.00 | > 6.70 | > 6.70
13 | Cc1c(F)c(C)c2[nH]ncc2c1-c1ccc2nc(NC(=O)[C@@H]3C[C@@H]3F)sc2n1 [Example 199, (1S,2S)-2-fluoro-N-(5-(6-fluoro-5,7-dimethyl-1H-indazol-4-yl)thiazolo[5,4-b]pyridin-2-yl)cyclopropane-1-carboxamide] | > 7.00 | 6.00 to 6.70 | –
14 | Cc1c(F)c(C(=O)N(C)C)c2[nH]ncc2c1-c1ccc2nc(NC(=O)[C@@H]3C[C@@H]3F)sc2c1 [Example 134, 6-fluoro-4-(2-((1S,2S)-2-fluorocyclopropane-1-carboxamido)benzo[d]thiazol-6-yl)-N,N,5-trimethyl-1H-indazole-7-carboxamide] | > 7.00 | > 6.70 | < 6.00
15 | CCOc1c(F)c(SC)c(-c2ccc3nc(NC(=O)[C@@H]4C[C@@H]4F)sc3c2)c2cn[nH]c12 [Example 118, (1S,2S)-N-(6-(7-ethoxy-6-fluoro-5-(methylthio)-1H-indazol-4-yl)benzo[d]thiazol-2-yl)-2-fluorocyclopropane-1-carboxamide] | > 7.00 | > 6.70 | –
16 | CN(c1c(F)c(Cl)c(-c2ccn3nc(NC(=O)[C@@H]4C[C@@H]4F)cc3c2)c2cn[nH]c12)C1CC(O)C1 (stereo partly drawn) [Example 561, (1S,2S)-N-(5-(5-chloro-6-fluoro-7-((3-hydroxycyclobutyl)(methyl)amino)-1H-indazol-4-yl)pyrazolo[1,5-a]pyridin-2-yl)-2-fluorocyclopropane-1-carboxamide] | > 7.00 | 6.00 to 6.70 | 6.00 to 6.70
17 | CCc1c(F)c(SCC#N)c2[nH]ncc2c1-c1ccn2nc(NC(=O)[C@@H]3C[C@@H]3F)cc2c1 [Example 588, (1S,2S)-N-(5-(7-((cyanomethyl)thio)-5-ethyl-6-fluoro-1H-indazol-4-yl)pyrazolo[1,5-a]pyridin-2-yl)-2-fluorocyclopropane-1-carboxamide] | > 7.00 | > 6.70 | > 6.70
18 | CSc1c(F)cc2[nH]ncc2c1-c1ccn2nc(NC(=O)C3CC3)cc2c1 [Example 569, N-(5-(6-fluoro-5-(methylthio)-1H-indazol-4-yl)pyrazolo[1,5-a]pyridin-2-yl)cyclopropanecarboxamide] | > 7.00 | 6.00 to 6.70 | < 6.00
19 | CCOc1c(F)c(C)c(-c2ccn3nc(NC(=O)[C@@H]4C[C@@H]4F)cc3c2)c2cn[nH]c12 [Example 509, (1S,2S)-N-(5-(7-ethoxy-6-fluoro-5-methyl-1H-indazol-4-yl)pyrazolo[1,5-a]pyridin-2-yl)-2-fluorocyclopropane-1-carboxamide] | > 7.00 | > 6.70 | 6.00 to 6.70
20 | CCc1c(F)c(SC)c2[nH]ncc2c1-c1ccc2nc(NC(=O)[C@@H]3C[C@@H]3F)cn2c1 [Example 293, (1S,2S)-N-(6-(5-ethyl-6-fluoro-7-(methylthio)-1H-indazol-4-yl)imidazo[1,2-a]pyridin-2-yl)-2-fluorocyclopropane-1-carboxamide] | > 7.00 | > 6.70 | –
21 | Cc1c(F)c(OCCO)c2[nH]ncc2c1-c1ccn2nc(NC(=O)[C@@H]3C[C@@H]3F)cc2c1 [Example 534, (1S,2S)-2-fluoro-N-(5-(6-fluoro-7-(2-hydroxyethoxy)-5-methyl-1H-indazol-4-yl)pyrazolo[1,5-a]pyridin-2-yl)cyclopropane-1-carboxamide] | > 7.00 | > 6.70 | –
22 | CCc1c(F)c(N(C)CC)c2[nH]ncc2c1-c1ccc2nc(NC(=O)[C@@H]3C[C@@H]3F)cn2c1 [Example 326, (1S,2S)-N-(6-(5-ethyl-7-(ethyl(methyl)amino)-6-fluoro-1H-indazol-4-yl)imidazo[1,2-a]pyridin-2-yl)-2-fluorocyclopropane-1-carboxamide] | > 7.00 | 6.00 to 6.70 | 6.00 to 6.70
23 | CN(C)c1c(F)c(Cl)c(-c2ccc3nc(NC(=O)[C@@H]4C[C@@H]4F)sc3n2)c2cn[nH]c12 [Example 172, (1S,2S)-N-(5-(5-chloro-7-(dimethylamino)-6-fluoro-1H-indazol-4-yl)thiazolo[5,4-b]pyridin-2-yl)-2-fluorocyclopropane-1-carboxamide] | > 7.00 | 6.00 to 6.70 | –

Reference: US11649255B2, “Indazoles as hematopoietic progenitor kinase 1 (HPK1) inhibitors and methods using same” (1st Biotherapeutics, Inc., priority 2020, dated 2023)
